Measurements reported in patent US20220363686A1 (AiCuris GmbH & Co. KG, priority 2018, published 2022).
pEC50, pIC50: −log10 of the molar value.

Legend:
HBV = test: Determination of HBV DNA from the supernatants of HepAD38 cells (anti-HBV activity); assay type: cell-based, hepatitis B virus; conditions: HBV DNA in HepAD38 supernatant, day 6, qPCR; read-out: Cell Activity
Method in brief: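 HepAD38 cells (60,000/well) seeded in tetracycline-free medium to induce HBV, treated with half-log serial compound dilutions for 6 days at 37 °C. HBV DNA purified from filtered supernatant and quantified by real-time PCR against HBV plasmid standards; EC50 from relative copy numbers by non-linear regression.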

HepAD38 cells = test: Cell viability assay (AlamarBlue); conditions: 0.3 μg/ml tetracycline, six days incubation, AlamarBlue
Procedure: Using the AlamarBlue viability assay cytotoxicity was evaluated in HepAD38 cells in the presence of 0.3 μg/ml tetracycline, which blocks the expression of the HBV genome. Assay condition and plate layout were in analogy to the anti-HBV assay, however other controls were used. On each assay plate six wells containing untreated HepAD38 cells were used as the 100% viability control, and six wells filled with assay medium only were used as 0% viability control. In addition, a geometric concentration series of cycloheximide starting at 60 μM final assay concentration was used as positive control in each experiment. After six days incubation period Alamar Blue Presto cell viability reagent (ThermoFisher, Dreieich) was added in 1/11 dilution to each well of the assay plate. After an incubation for 30 to 45 min at 37° C. the fluorescence signal, which is proportional to the number of living cells, was read using a Tecan Spectrafluor Plus plate reader with an excitation filter 550 nm and emission filter 595 nm, respectively. Data were normalized into percentages of the untreated control (100% viability) and assay medium (0% viability) before CC50 values were calculated using non-linear regression and the GraphPad Prism 6.0 (GraphPad Software, La Jolla, USA). Mean EC50 and CC50 values were used to calculate the selectivity index (SI=CC50/EC50) for each test compound.

[1] = target: HBV core protein (C-terminal truncated core protein containing 149 amino acids of the N-terminal assembly domain) (UniProt P03146); test: Biochemical capsid assembly assay (fluorescence quenching); parameters: rows headed: Assembly Activity; other: BODIPY-FL labelled core protein, assembly started with NaCl, read after 6 min; conditions: read-out: Assembly Activity; BODIPY-FL labelled core protein, assembly started with NaCl, read after 6 min
HBV core protein (C-terminal truncated core protein containing 149 amino acids of the N-terminal assembly domain), sequence (P03146 whole entry, the tested form may be a part): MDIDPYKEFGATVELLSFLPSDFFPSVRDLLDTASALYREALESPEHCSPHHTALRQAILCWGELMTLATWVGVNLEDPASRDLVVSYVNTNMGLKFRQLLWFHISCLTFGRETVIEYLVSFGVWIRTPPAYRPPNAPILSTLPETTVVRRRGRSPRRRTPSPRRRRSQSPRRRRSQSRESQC
Method in brief: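 N-terminal assembly domain (residues 1–149) plus C-terminal Cys150, E. coli-expressed, BODIPY-FL-maleimide labelled, used at 1.0–2.0 μM in 50 mM HEPES pH 7.5 with 0.5% DMSO. Assembly started with NaCl ([…]); fluorescence quenching (ex 477/em 525 nm) read after 6 min. 8-point compound series; EC50 by non-linear regression.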

| Structure (SMILES) | pEC50 (HBV) | CC50 (HepAD38 cells) [µM] | pIC50 [1] |
| --- | --- | --- | --- |
| CC1Cn2ncc(C(=O)N(C)C3CC3)c2CN1C(=O)c1cc2ccccc2[nH]1 (single isomer, unassigned) [Example 71, N-cyclopropyl-5-(1H-indole-2-carbonyl)-N,6-dimethyl-4H,5H,6H,7H-pyrazolo[1,5-a]pyrazine-3-carboxamide] | > 6.00 | > 10 | > 5.30 |
| CC1Cn2ncc(C(=O)NC3(COC(F)F)CC3)c2CN1C(=O)c1cc2ccccc2[nH]1 (single isomer, unassigned) [Example 132, N-{1-[(difluoromethoxy)methyl]cyclopropyl}-5-(1H-indole-2-carbonyl)-6-methyl-4H,5H,6H,7H-pyrazolo[1,5-a]pyrazine-3-carboxamide] | > 6.00 | > 10 | > 5.30 |
